The values that follow come from paper PMC8688955 (Frontiers in Pharmacology, 2021).

Assay [1] concerns the target non-NMDA glutamate receptors. On the set-up: method as in Kawano et al., 1994. The conditions noted are these: expressed in Xenopus oocytes; ref Kawano et al., 1994; cited from earlier work.
Assay [2] concerns the target non-NMDA glutamate receptors. On the set-up: method as in Phillips et al., 1997. Conditions: neocortical wedges; ref Phillips et al., 1997; cited from earlier work.
For a further assay, the system named is CP-AMPARs. In words: Whole-cell patch-clamp of kainate-induced currents in isolated striatal giant interneurons. Conditions: for % block: representative recording, Figure 1B; for % inhibition: 200 µM phenytoin, n = 5. Type of assay: cell-based, Wistar rat. The protocol:
All experimental procedures were approved by the Animal Care and Use Committee of the I.M. Sechenov Institute of Evolutionary Physiology and Biochemistry of the Russian Academy of Sciences. Wistar rats (13–19 days old) were anesthetized with sevoflurane and then decapitated. Maximum effort was made to minimize the number of animals used. Brains were removed quickly and cooled to 2–4°C in an ice bath. […] Single neurons were freed from slices by vibrodissociation ([Vorobjev, 1991]). The antagonism of CP-AMPARs was studied on striatal giant interneurons ([Bernard et al., 1997]; [Gotz et al., 1997]), which were identified by their shape and size. […] The antagonism of CI-AMPARs was studied on pyramidal neurons from the CA1 area of the hippocampus.
Series resistance of about 20 MΩ was compensated by 70–80% and monitored during experiments. Currents were recorded using an EPC-8 amplifier (HEKA Electronics, Lambrecht, Germany), filtered at 5 kHz, sampled, and stored on a personal computer. Drugs were applied using the RSC-200 perfusion system (BioLogic Science Instruments, Claix, France) under computer control. The solution exchange time in the whole-cell mode was 50–60 ms. The extracellular solution contained (in mM) NaCl 143, KCl 5, MgCl2 2.0, CaCl2 2.5, D-glucose 18, and HEPES 10 (pH was adjusted to 7.3 with HCl). The pipette solution contained (in mM) CsF 100, CsCl 40, NaCl 5, CaCl2 0.5, EGTA 5, and HEPES 10 (pH was adjusted to 7.2 with CsOH). Experiments were performed at room temperature (22–24°C). […] Lamotrigine, topiramate, levetiracetam, felbamate, carbamazepine, tiagabin, vigabatrin, zonisamide, and gabapentin were purchased from Tocris Bioscience (Bristol, United Kingdom). Perampanel was from MedChemExpress (Stockholm, Sweden). Kinetics of transient processes of more than 20-ms duration was approximated by exponential functions. Experiments were performed at −80 mV holding voltage. All experimental data are presented as mean ± SD estimated from at least four experiments. Significance of the effects was tested with paired t test. Differences were considered significant at p < 0.05. 3D structures of compounds were calculated by the ZMM software (zmmsoft.ca).

Like-named read-outs stand apart in the source and are kept apart here.

Usually IC50 stands for the concentration needed to halve the response being measured. In general, % inhibition refers to the drop in the measured response relative to a control, in per cent. High values mean a strong effect, low ones a weak effect. For orientation: Hill coefficient means the slope factor of the fitted curve. Turning to `O=C1NC(=O)C(c2ccccc2)(c2ccccc2)N1` [Phenytoin], the IC50 is at least 100 µM in assay [1]; at least 100 µM in assay [2]; 250 ± 60 µM with CP-AMPARs (kainate-induced currents, Hill equation, −80 mV, read-out: IC50 CP-AMPARs). Moreover, the “% block” value in the assay with CP-AMPARs (30 μM phenytoin) came out at 19%; with CP-AMPARs (100 μM phenytoin), 38%; with CP-AMPARs (300 μM phenytoin) it was 57%. Besides, the “% inhibition” value with CP-AMPARs (50 µM kainate) was found to be 59 ± 5%; in the assay on CP-AMPARs (500 µM kainate), 48 ± 2%. Moreover, the “% block, coapplication with agonist” value in the assay on CP-AMPARs (300 µM phenytoin, n = 8) was found to be 60 ± 6%. In addition, in the assay on CP-AMPARs (500 µM phenytoin, highest concentration tested), the “inhibition of kainate-induced currents” value turned out to be 58 ± 5%. Moreover, in the assay with CP-AMPARs (inhibition of CP-AMPARs, Hill equation), the Hill coefficient is given as 0.7 ± 0.2.
